In assay [1] the test system is SKM-1. The assay can be described thus: Extended viability test (AlamarBlue). It is filed as cell-based. Particulars: Homo sapiens, extended viability assay.
Assay [2] relates to RNAP II CTD S2 and S5. The assay can be described thus: RNAP II CTD phosphorylation in HCT-116 cells (WB). It is filed as cell-based. The note with it: SEL120-34A up to 2.5 μM. How it is done: 0,1% SDS; 20 mM β-glicerol phosphate; 5 mM NaF; cat. # sc835), α-STAT5-pS726 (1:1000; Abcam, cat. # 1 mM Na3VO4) supplemented with protease inhibitors ab128896), α-STAT5-pY694 (1:1000; Cell Signaling, (Santa Cruz Biotechnology). Tumor samples were cat. #C11C5), α-tubulin (1:4000; Sigma, cat. # T5192) homogenized in 15 sec intervals and kept on ice between and β-actin (1:4000, Sigma cat. # A2066) or GAPDH homogenization cycles. Protein concentration in lysates (1:20000; Sigma, cat. # G9545) was measured by the Bradford assay and adjusted to achieve the same final concentration in each well (20-30 mRNA extraction from xenograft tissue μg protein/well). […] A scoop Unless indicated otherwise, membranes were blocked of a tumor (~25mg) was homogenized with a pestle for 45 min with 2% fat-free dried milk (Rovema, Poland) under liquid nitrogen and immediately processed in Tris-buffered saline (TBS) + 0.05% Tween (TBST), according to the RNeasy Mini Kit protocol (Qiagen). incubated overnight at 4°C with primary antibodies diluted The RNA concentration was measured by a NanoDrop into 2% milk in TBST and washed four times for 10 min spectrophotometer and stored at -80°C for downstream with TBST. […]
with the activities of CDK9 in cells. […] Protein levels of RNAP II CTD pS2, pS5, cMYC and GAPDH were measured by WB.

`Cc1c(Br)c(Br)c2c3c1nc(N1CCNCC1)n3CCC2` [SEL120-34A] returned a GI50 in assay [1] of 1900 nM. In assay [2], the “RNAP II CTD phosphorylation at S2 and S5” value was “not affected”.

The values above are taken from PMC5464911, “SEL120-34A is a novel CDK8 inhibitor active in AML cells with high levels of serine phosphorylation of STAT1 and STAT5 transactivation domains” (Oncotarget, 2017).
